From patent US20100119646A1, “Dihydroeugenol as Additive for feed” (DSM IP ASSETS B.V., priority 2007, published 2010)
Where two headings read alike, the source gives them in different places.

Tests used:
Escherichia coli = test: Gut microflora modulation in vivo, ileo-rectal contents of anastomosed piglets: Escherichia coli counts; conditions: mean CFU per g ileal content dry matter, ten piglets, not significant
[1] = system: total lactic acid bacteria; test: Gut microflora modulation in vivo, ileo-rectal contents of anastomosed piglets: lactic acid bacteria on MRS agar; conditions: ten piglets
[2] = assay type: in vivo; conditions: for FCR (kg/kg) / Feed intake / DWG / DWG relative to basal diet A (100) / FCR relative to basal diet A (100) / Feed intake relative to basal diet A (100): 400 ppm in diet (mixture 1: 150 ppm); for FCR (kg/kg) / Feed intake: mean ± standard deviation of 3 determinations; for DWG: mean ± standard deviation of 19 determinations; for DWG relative to basal diet A (100) / FCR relative to basal diet A (100) / Feed intake relative to basal diet A (100): value in brackets, control A = (100); for improvement of feed conversion ratio versus controls: 400 ppm in diet
Enterobacteriacae = test: Gut microflora modulation in vivo, ileo-rectal contents of anastomosed piglets: Enterobacteriacae on V.R.B.D agar; conditions: mean CFU per g ileal content dry matter, ten piglets, not significant; for total Enterobacteriacae counts decreased relative to the control: 300 ppm in feed
Enterococcus spp = test: Gut microflora modulation in vivo, ileo-rectal contents of anastomosed piglets: Enterococcus spp on Enterococci agar; conditions: 300 ppm in feed; ten piglets
[3] = system: total facultative anaerobic bacteria; test: Gut microflora modulation in vivo, ileo-rectal contents of anastomosed piglets: total facultative anaerobic counts on Brucella agar; conditions: 300 ppm in feed; mean CFU per g ileal content dry matter; ten piglets; not significant
Staphylococcus spp = test: Gut microflora modulation in vivo, ileo-rectal contents of anastomosed piglets: Staphylococcus spp on Baird Parker agar; conditions: 300 ppm in feed; ten piglets
[4] = 300 ppm in feed, mean CFU per g ileal content dry matter, not significant

Structure (SMILES) | FCR (kg/kg) ([2]; day 0-14) | Feed intake ([2]; day 0-14) [g/day] | DWG ([2]; day 0-14) [g] | DWG relative to basal diet A (100) ([2]; day 0-14) | FCR relative to basal diet A (100) ([2]; day 0-14) | Feed intake relative to basal diet A (100) ([2]; day 0-14) | FCR (kg/kg) ([2]; day 0-29) | Feed intake ([2]; day 0-29) [g/day] | DWG ([2]; day 0-29) [g] | DWG relative to basal diet A (100) ([2]; day 0-29) | FCR relative to basal diet A (100) ([2]; day 0-29) | Feed intake relative to basal diet A (100) ([2]; day 0-29) | effect on the population of Enterococcus spp (in words) (Enterococcus spp) | total facultative anaerobic bacteria counts increased relative to the control [3] [%] | total Enterobacteriacae counts decreased relative to the control (Enterobacteriacae) [%] | also measured
O=C1/C(=C/c2ccc(O)c(O)c2)Oc2cc(O)cc(O)c21 [aureusidin] | 1.965 ± 0.21 | 332 ± 52 | 189 ± 61 | (104) | (103) | (98) | 1.968 ± 0.018 | 686 ± 72 | 275 ± 48 | (106) | (103) | (104) | – | – | – | Escherichia coli counts decreased relative to the control (Escherichia coli; 150 ppm in feed): 66%; total lactic acid bacteria counts decreased relative to the control ([1]; 150 ppm in feed, mean CFU per g ileal content dry matter, not significant): 17%; Enterobacteriacae counts decreased relative to the control (Enterobacteriacae; 150 ppm in feed): 30%
CCCc1ccc(O)c(OC)c1 [dihydroeugenol, 2-methoxy-4-propylphenol] | 1.776 ± 0.034 | 364 ± 46 | 208 ± 39 | (115) | (93) | (107) | 1.88 ± 0.08 | 708 ± 85 | 285 ± 33 | (110) | (98) | (108) | neutral effect | 12 | 67 | total lactic acid bacteria counts increased relative to the control [1, 4]: 26%; improvement of feed conversion ratio versus controls ([2]; first 14 days of the experiment): 7%; improvement of feed conversion ratio versus controls ([2]; whole observation period (29 days)): 2%; improvement of the daily weight gain comparatively to the non supplemented control ([2]; whole observation period (29 days), dihydroeugenol 400 ppm, mixture 1 150 ppm): 10%; effect on the population of Staphylococcus spp (in words) (Staphylococcus spp): neutral effect
Cc1cccc(C)c1O [2,6-dimethylphenol] | 1.886 ± 0.06 | 350 ± 5 | 186 ± 45 | (103) | (99) | (103) | 1.914 ± 0.053 | 694 ± 27 | 272 ± 53 | (105) | (100) | (106) | negative effect | 37 | 68 | effect on the total lactic acid bacteria (in words) ([1]; 300 ppm in feed): neutral effect
Oc1ccc(CC=Cc2ccccc2)cc1 [4-cinnamylphenol] | 1.82 ± 0.058 | 345 ± 42 | 193 ± 41 | (107) | (96) | (102) | 1.953 ± 0.048 | 670 ± 72 | 262 ± 53 | (101) | (102) | (102) | – | – | 36 | Escherichia coli counts decreased relative to the control (Escherichia coli; 300 ppm in feed): 42%; total lactic acid bacteria counts decreased relative to the control [1, 4]: 22%
